According to ChEMBL document CHEMBL1123299, “New antiarrhythmic agents. 2,2,5,5-Tetramethyl-3-pyrroline-3-carboxamides and 2,2,5,5-tetramethylpyrrolidine-3-carboxamindes” (J Med Chem, 1986):

What was measured:
[1] = Acute toxicity determined after intravenal administration in mice; format: organism-based; details: mouse, in vivo, iv
[2] = tested on: Rattus norvegicus; experiment: Incidence of arrhythmias in rats after a intravenal administration at 4 mg/kg, expressed as no. of positive cases out of no. of tested cases (10); format: functional
[3] = organism: Rattus norvegicus; experiment: Relative potency with reference to quinidine; format: functional

SMILES	LD50 [1] [mg/kg]	No. of positive cases [2]	Relative potency [3]
CC(CNC(=O)C1=CC(C)(C)NC1(C)C)NCc1cccs1 (stereo unspecified)	68	4	–
CC1(C)C=C(C(=O)NCCN2C(=O)C3CC=CCC3C2=O)C(C)(C)N1 (stereo unspecified)	182	0	–
CC1(C)C=C(C(=O)NCC(C)(C)NCc2cccs2)C(C)(C)N1	49	1	–
Cc1nc2ccccc2c(=O)n1CCCNC(=O)C1CC(C)(C)NC1(C)C (stereo unspecified)	53	3	–
CC1(C)C=C(C(=O)NCC(O)CNC(=O)C(C)(C)Oc2ccc(Cl)cc2)C(C)(C)N1 (stereo unspecified)	69	0	–
CC1(C)C=C(C(=O)NCCNC(=O)C(C)(C)Oc2ccc(Cl)cc2)C(C)(C)N1	47	0	–
CC1(C)C=C(C(=O)NCCNCc2cccs2)C(C)(C)N1	123	3	–
CC1(C)C=C(C(=O)NCCCNCc2ccncc2)C(C)(C)N1	94	0	–
CC1(C)C=C(C(=O)NCc2ccccc2)C(C)(C)N1	34	3	–
CC1(C)C=C(C(=O)NCCNC(=O)Cc2cccs2)C(C)(C)N1	86	2	–
CC1(C)C=C(C(=O)NC(C(N)=O)c2ccccc2)C(C)(C)N1 (stereo unspecified)	75	2	–
CN(Cc1ccccc1)C(=O)C1=CC(C)(C)NC1(C)C	51	1	–
CCc1nc2ccccc2c(=O)n1CCNC(=O)C1=CC(C)(C)NC1(C)C	–	10	1.1
COc1ccc(CNCCNC(=O)C2=CC(C)(C)NC2(C)C)cc1OC	61	2	–
CC1(C)C=C(C(=O)NCCNC(=O)C(O)c2ccccc2)C(C)(C)N1 (stereo unspecified)	85	0	–
CC1(C)C=C(C(=O)NCCN2C(=O)c3ccccc3C2=O)C(C)(C)N1	–	7	1.5
COc1ccc(CNC(=O)C2=CC(C)(C)NC2(C)C)cc1	66	0	–
CC1(C)C=C(C(=O)NC(c2ccccc2)c2ccccc2)C(C)(C)N1	63	5	–
CC1(C)C=C(C(=O)NCCNC(=O)COc2ccc(Cl)cc2Cl)C(C)(C)N1	37	4	–
CC1(C)C=C(C(=O)NCCNC(=O)C2CC=CCC2C(=O)O)C(C)(C)N1 (stereo unspecified)	1510	0	–
CC1(C)C=C(C(=O)NCCNC(=O)c2ccccn2)C(C)(C)N1	88	2	–
Cc1nc2ccccc2c(=O)n1CCCNC(=O)C1=CC(C)(C)NC1(C)C	–	10	2.6
CC1(C)C=C(C(=O)NCCCNC(=O)C2CC=CCC2C(=O)O)C(C)(C)N1 (stereo unspecified)	344	0	–

SMILES	LD50 [1] [mg/kg]	No. of positive cases [2]	Relative potency [3]
CC1(C)C=C(C(=O)NCc2ccc(Cl)cc2)C(C)(C)N1	49	0	–
CC(=O)Nc1ccc(CNCCCNC(=O)C2=CC(C)(C)NC2(C)C)cc1	23	2	–
CC1(C)CC(C(=O)NCCCN2C(=O)c3ccccc3C2=O)C(C)(C)N1 (stereo unspecified)	–	10	2.6
CC1(C)C=C(C(=O)NCCNC(=O)c2ccc3c(c2)OCO3)C(C)(C)N1	95	2	–
CCc1nc2ccccc2c(=O)n1CCCNC(=O)C1CC(C)(C)NC1(C)C (stereo unspecified)	–	10	4.4
CC1(C)C=C(C(=O)NCCCNC(=O)c2ccc3c(c2)OCO3)C(C)(C)N1	76	4	–
CC1(C)C=C(C(=O)NCCCN2C(=O)C3CCCCC3C2=O)C(C)(C)N1 (stereo unspecified)	106	0	–
CC1(C)CC(C(=O)NCCCNCc2ccc(C(F)(F)F)cc2)C(C)(C)N1 (stereo unspecified)	–	9	4.1
COc1cc(C(=O)NCCCNC(=O)C2=CC(C)(C)NC2(C)C)cc(OC)c1OC	–	5	0.97
CC1(C)C=C(C(=O)NCc2ccncc2)C(C)(C)N1	132	0	–
CC1(C)C=C(C(=O)NCCNC(=O)C2CCCCC2C(=O)O)C(C)(C)N1 (stereo unspecified)	1130	0	–
CC1(C)C=C(C(=O)NCCCNC(=O)Cc2ccccc2)C(C)(C)N1	54	6	–
CC1(C)C=C(C(=O)NCCCNCc2ccc[nH]2)C(C)(C)N1	20	4	–
CC1(C)C=C(C(=O)NCCCNC(=O)c2ccccc2C(=O)O)C(C)(C)N1	–	0	–
CC1(C)C=C(C(=O)NCCCNC(=O)COc2ccc(Cl)cc2Cl)C(C)(C)N1	20	5	–
CC1(C)C=C(C(=O)NCCCNCc2ccccc2)C(C)(C)N1	–	9	3.3
CC1(C)C=C(C(=O)NCCCNCc2ccccn2)C(C)(C)N1	102	0	–
CC1(C)C=C(C(=O)NCCN2C(=O)C3CCCCC3C2=O)C(C)(C)N1 (stereo unspecified)	128	0	–
Cc1nc2ccccc2c(=O)n1CC(O)CNC(=O)C1=CC(C)(C)NC1(C)C (stereo unspecified)	73	4	–
CC1(C)C=C(C(=O)NCCCCNC(=O)c2cccs2)C(C)(C)N1	37	6	–
Cc1cc(Cl)ccc1OCC(=O)NCCNC(=O)C1=CC(C)(C)NC1(C)C	36	2	–
CC1(C)C=C(C(=O)NCCCNC(=O)c2cccs2)C(C)(C)N1	48	4	–
CC1(C)C=C(C(=O)NCCCNC(=O)C(C)(C)Oc2ccc(Cl)cc2)C(C)(C)N1	46	0	–

SMILES	LD50 [1] [mg/kg]	No. of positive cases [2]	Relative potency [3]
CC1(C)C=C(C(=O)NCCNC(=O)c2ccccc2C(=O)O)C(C)(C)N1	357	0	–
CC1(C)C=C(C(=O)NCCCCNCc2cccs2)C(C)(C)N1	–	10	2.5
Cc1cc(Cl)ccc1OCC(=O)NCCCNC(=O)C1=CC(C)(C)NC1(C)C	30	3	–
CC1(C)C=C(C(=O)NCCCNCc2cccc(O)c2)C(C)(C)N1	17	4	–
CC(NCCNC(=O)C1=CC(C)(C)NC1(C)C)c1cccs1 (stereo unspecified)	53	2	–
Cc1cccc(C)c1NC(=O)C(C)NCCNC(=O)C1=CC(C)(C)NC1(C)C (stereo unspecified)	39	4	–
CC(=O)Nc1ccc(CNCCNC(=O)C2=CC(C)(C)NC2(C)C)cc1	25	2	–
CC1(C)C=C(C(=O)NCCCNC(=O)C(O)c2ccccc2)C(C)(C)N1 (stereo unspecified)	52	1	–
CC1(C)C=C(C(=O)NCCCNC(=O)Cc2cccs2)C(C)(C)N1	–	8	3.8
CC1(C)C=C(C(=O)NCCCN2C(=O)C3CC=CCC3C2=O)C(C)(C)N1 (stereo unspecified)	–	2	–
COc1cc(CNCCNC(=O)C2=CC(C)(C)NC2(C)C)cc(OC)c1OC	56	2	–
COc1ccc(CCNC(=O)C2=CC(C)(C)NC2(C)C)cc1OC	123	0	–
CC1(C)C=C(C(=O)NCCCNCc2ccco2)C(C)(C)N1	34	0	–
CC1(C)C=C(C(=O)NCCCNC(=O)C2CCCCC2C(=O)O)C(C)(C)N1 (stereo unspecified)	753	0	–
Cc1nc2ccccc2c(=O)n1CCNC(=O)C1=CC(C)(C)NC1(C)C	–	4	–
CC1(C)C=C(C(=O)NCCCNCc2ccsc2)C(C)(C)N1	–	9	2.2
C=CCc1ccc(OCC(=O)NCCCNC(=O)C2CC(C)(C)NC2(C)C)c(OC)c1 (stereo unspecified)	38	0	–
CC1(C)CC(C(=O)NCCCNCc2cccs2)C(C)(C)N1 (stereo unspecified)	–	10	2.8
CC1(C)C=C(C(=O)NCCNC(=O)c2cccs2)C(C)(C)N1	93	3	–
CC1(C)C=C(C(=O)NCC(O)CN2C(=O)c3ccccc3C2=O)C(C)(C)N1 (stereo unspecified)	–	10	3.9
CC1(C)CC(C(=O)NCCCNCc2ccsc2)C(C)(C)N1 (stereo unspecified)	–	7	0.9
